Source: ChEMBL document CHEMBL1201862, “PubChem BioAssay data set” (2004)
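Each compound was tested at five concentrations against cells in 96-well plates for 48 hours. GI50 is the concentration that inhibits growth by half.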 Calls of active or inactive are those of the source. No stated cut-off is given here; in the data, active = GI50 up to about 1.1 µM and inactive = higher.

What was measured:
Test in all cases: growth of human tumour cells (NCI), 48 h
HCC 2998 = tested on: HCC 2998
SNB-19 = tested on: SNB-19
Malme-3M = tested on: Malme-3M
CCRF-CEM = tested on: CCRF-CEM
HCT-116 = tested on: HCT-116
K562 = tested on: K562
HOP-92 = tested on: HOP-92
LOX IMVI = tested on: LOX IMVI
SR = tested on: SR
DLD-1 = tested on: DLD-1
NCI-H226 = tested on: NCI-H226
OVCAR-5 = tested on: OVCAR-5
SF-295 = tested on: SF-295
CAKI-1 = tested on: CAKI-1
IGROV-1 = tested on: IGROV-1
Hs-578T = tested on: Hs-578T
BT-549 = tested on: BT-549
MCF7 = tested on: MCF7
MDA-MB-435 = tested on: MDA-MB-435
MDA-N = tested on: MDA-N

Measured: GI50

CCOC(=O)Cc1ccc2c(c1O)C(=O)c1c(ccc(CC(=O)OCC)c1O)C2=O
inactive: HCC 2998 > 100 µM | SNB-19 > 100 µM | Malme-3M 30.1 µM | CCRF-CEM 59 µM | HCT-116 > 100 µM | K562 > 100 µM | HOP-92 > 100 µM | LOX IMVI 27.9 µM | SR > 100 µM | DLD-1 > 100 µM | NCI-H226 43.5 µM | OVCAR-5 > 100 µM | SF-295 > 100 µM

COc1ccccc1NC(=O)CC(=O)N1N=C(C)C(/N=N/c2ccc(S(N)(=O)=O)cc2)C1=O (centres undefined)
inactive: HCC 2998 > 100 µM | SNB-19 > 100 µM | Malme-3M > 100 µM | HCT-116 > 100 µM | CAKI-1 > 100 µM | HOP-92 > 100 µM | LOX IMVI > 100 µM | SR > 100 µM | IGROV-1 > 100 µM | DLD-1 > 100 µM | NCI-H226 > 100 µM | OVCAR-5 > 100 µM | SF-295 > 100 µM

O=C(Cl)c1cc([N+](=O)[O-])cc([N+](=O)[O-])c1
inactive: HCC 2998 > 100 µM | SNB-19 > 100 µM | Malme-3M > 100 µM | CCRF-CEM > 100 µM | HCT-116 > 100 µM | CAKI-1 > 100 µM | K562 > 100 µM | HOP-92 > 100 µM | LOX IMVI > 100 µM | SR > 100 µM | IGROV-1 > 100 µM | DLD-1 > 100 µM | NCI-H226 > 100 µM | OVCAR-5 > 100 µM | SF-295 > 100 µM

COc1cccc(NC(=O)CC(=O)N2N=C(N3c4ccccc4Sc4ccccc43)CC2c2ccccc2)c1 (centres undefined)
inactive: HCC 2998 > 100 µM | SNB-19 > 100 µM | Malme-3M > 100 µM | HCT-116 > 100 µM | CAKI-1 > 100 µM | HOP-92 > 100 µM | LOX IMVI > 100 µM | SR > 100 µM | IGROV-1 > 100 µM | DLD-1 > 100 µM | NCI-H226 > 100 µM | OVCAR-5 > 100 µM | SF-295 > 100 µM

CC(=O)[O-].[O-]c1c(Cl)cc(Cl)cc1/C=N/Nc1ccccn1.[Zn+2]
active: Malme-3M 0.76 µM | CCRF-CEM 0.244 µM | HCT-116 0.338 µM | K562 0.372 µM | HOP-92 0.316 µM | LOX IMVI 0.798 µM | SR 0.16 µM | DLD-1 0.415 µM
inactive: HCC 2998 9.86 µM | SNB-19 3.86 µM | IGROV-1 1.96 µM | NCI-H226 > 100 µM | OVCAR-5 2 µM | SF-295 1.47 µM

CCNC(=O)C(O)C1(O)CCC2[C@@H]3CCC4=CC(=O)C=C[C@]4(C)C3[C@@H](O)C[C@@]21C (some centres undefined)
inactive: HCC 2998 > 100 µM | SNB-19 > 100 µM | Malme-3M > 100 µM | CCRF-CEM 32.8 µM | HCT-116 > 100 µM | CAKI-1 > 100 µM | K562 > 91 µM | LOX IMVI > 95.1 µM | SR 63 µM | IGROV-1 > 100 µM | DLD-1 > 100 µM | NCI-H226 > 87.5 µM | OVCAR-5 > 100 µM | SF-295 > 100 µM

CC1=C(N2CC2)C(=O)c2nc3n(c2C1=O)CCC3OC(=O)CCl (centres undefined)
active: HCC 2998 0.0395 µM | SNB-19 0.0538 µM | Hs-578T 0.0279 µM | Malme-3M 0.0453 µM | CCRF-CEM 0.181 µM | HCT-116 0.0418 µM | BT-549 0.0152 µM | MCF7 < 0.01 µM | CAKI-1 0.0615 µM | MDA-MB-435 0.0298 µM | K562 0.0618 µM | LOX IMVI 0.0354 µM | MDA-N 0.0222 µM | SR 0.225 µM | IGROV-1 0.19 µM | DLD-1 0.101 µM | NCI-H226 0.064 µM | OVCAR-5 0.0692 µM | SF-295 0.0373 µM
inactive: HOP-92 3.3 µM

CNC=O
inactive: HCC 2998 > 3980 µM | SNB-19 > 10000 µM | Hs-578T > 10000 µM | Malme-3M > 10000 µM | CCRF-CEM > 10000 µM | HCT-116 > 10000 µM | BT-549 > 10000 µM | MCF7 > 10000 µM | CAKI-1 > 10000 µM | MDA-MB-435 > 10000 µM | K562 > 10000 µM | HOP-92 > 9530 µM | LOX IMVI > 9180 µM | MDA-N > 10000 µM | SR > 10000 µM | IGROV-1 > 10000 µM | DLD-1 > 10000 µM | NCI-H226 > 10000 µM | OVCAR-5 > 10000 µM | SF-295 > 9510 µM

N[C@H](C(=O)O)[C@@H]1CC(Cl)=NO1 [ACIVICIN]
inactive: HCC 2998 8.99 µM | Hs-578T 3.62 µM | Malme-3M 4.26 µM | CCRF-CEM 1.19 µM | BT-549 43 µM | CAKI-1 2.52 µM | MDA-MB-435 3.9 µM | K562 2.46 µM | HOP-92 33.2 µM | LOX IMVI 1.46 µM | MDA-N 4.06 µM | DLD-1 1.23 µM | OVCAR-5 7.71 µM
active: HCT-116 0.746 µM | MCF7 0.676 µM | SR 0.74 µM | IGROV-1 0.698 µM
